Molecules are shown by their SMILES. Starred links: 1 amine or outer side, 2 acyl side, 3 side chain; linkers in the order of their positions; H or OH if unused. Positions of bridges follow the written chain, without caps; N, C: chain ends. Non-standard residues stand in square brackets, D forms with d. Residues, ends and D or L forms follow the SMILES beside them. *: point of attachment. NMeAbu(3,3-F2-piperidino) = CN[C@@H](CCN1CCCC(F)(F)C1)C(=O)O; hPhe(3-Cl-4-CF3) = N[C@@H](CCc1ccc(C(F)(F)F)c(Cl)c1)C(=O)O; hPhe(4-CF3) = N[C@@H](CCc1ccc(C(F)(F)F)cc1)C(=O)O; Phe(3-CF3) = N[C@@H](Cc1cccc(C(F)(F)F)c1)C(=O)O; NMePhe(4-Cl) = CN[C@@H](Cc1ccc(Cl)cc1)C(=O)O; NMePhe(2-CN) = CN[C@@H](Cc1ccccc1C#N)C(=O)O; NMePhe(4-Me) = CN[C@@H](Cc1ccc(C)cc1)C(=O)O; NMedβ3hAla = C[C@H](CC(=O)[*:2])N(C)[*:1]; NMeGly(cPent) = CN[C@H](C(=O)O)C1CCCC1; Phe(3-I) = N[C@@H](Cc1cccc(I)c1)C(=O)O; Pro(4,4-F2) = O=C(O)[C@@H]1CC(F)(F)CN1; NMeCha = CN[C@@H](CC1CCCCC1)C(=O)O; NMeChg = CN[C@H](C(=O)O)C1CCCCC1; NMeF = CN[C@@H](Cc1ccccc1)C(=O)O; NMeI = CC[C@H](C)[C@H](NC)C(=O)O; NMeβAla = CN(CCC(=O)[*:2])[*:1]; NMeD = CN[C@@H](CC(=O)O)C(=O)O; NMeL = CN[C@@H](CC(C)C)C(=O)O; NMeV = CN[C@H](C(=O)O)C(C)C; NMeA = CN[C@@H](C)C(=O)O; NMeAib = CNC(C)(C)C(=O)O; Piperidide = C1CCN(*)CC1; Pyrrolidide = C1CCN(*)C1; dNMeA = CN[C@H](C)C(=O)O; Ac5c = NC1(C(=O)O)CCCC1; Aze = O=C(O)[C@@H]1CCN1; Ac4c = NC1(C(=O)O)CCC1; Sar = CNCC(=O)O

This assay deals with T1, Kras and SOS1 (biotin-tagged human Kras loaded with GDP, His-tagged human SOS1) (Homo sapiens, UniProt P01116, G12D).
T1 construct: made in house; host or cells: E. coli (stated for Kras only)
T1 sequence (P01116 1-188 isoform P01116-2 G12D): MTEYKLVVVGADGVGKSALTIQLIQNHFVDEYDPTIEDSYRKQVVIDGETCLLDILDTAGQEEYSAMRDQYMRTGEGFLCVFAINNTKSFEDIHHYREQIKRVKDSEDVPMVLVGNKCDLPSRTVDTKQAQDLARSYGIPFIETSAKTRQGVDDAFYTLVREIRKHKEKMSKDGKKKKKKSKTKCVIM
Kind of assay: Protein-protein interaction inhibition between Kras and SOS1 (KrasGl2D-SOS PPI) using AlphaScreen. Format: binding. To be noted: AlphaScreen; biotin-tagged human Kras loaded with GDP, His-tagged human SOS1; read-out: KRAS G12D-SOS PPI IC50. Summed up: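 Binding between SOS1 and Kras is detected as bead-proximity luminescence: illuminate Ni-conjugated donors (680 nm), collect 520-620 nm emission from streptavidin-conjugated acceptors; Kras carries biotin and GDP loaded after purification, SOS1 carries a His tag.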
A general note: Alpha assays give light when donor and acceptor beads are brought close together.
Turning to `CC[C@H](C)[C@@H]1NC(=O)[C@H](CC(C)C)N(C)C(=O)C[C@@H](C)N(C)C(=O)[C@H](C(C)C)N(C)C(=O)C2(CCCC2)NC(=O)[C@@H]2CCCN2C(=O)[C@H](CCc2ccc(C(F)(F)F)c(Cl)c2)NC(=O)CN(C)C(=O)[C@H](Cc2ccccc2C#N)N(C)C(=O)CN(C)C(=O)CN(C)C1=O` [Compound 357] (cyclo([Ac5c][NMeV][NMedβ3hAla][NMeL]I[Sar][Sar][NMePhe(2-CN)][Sar][hPhe(3-Cl-4-CF3)]P)), the IC50 is 22 nM. For the molecule `CC[C@H](C)[C@@H]1NC(=O)[C@H](CC(C)C)N(C)C(=O)C[C@@H](C)N(C)C(=O)[C@H](C2CCCC2)N(C)C(=O)C2(CCC2)NC(=O)[C@@H]2CC(F)(F)CN2C(=O)[C@H](CCc2ccc(C(F)(F)F)c(Cl)c2)NC(=O)CN(C)C(=O)[C@H](Cc2ccc(C)cc2)N(C)C(=O)CN(C)C(=O)CN(C)C1=O` [Compound 359] (cyclo([Ac4c][NMeGly(cPent)][NMedβ3hAla][NMeL]I[Sar][Sar][NMePhe(4-Me)][Sar][hPhe(3-Cl-4-CF3)][Pro(4,4-F2)])), the IC50 was 3.2 nM. In the case of `CC[C@H](C)[C@@H]1NC(=O)[C@H](CC(C)C)N(C)C(=O)C[C@@H](C(=O)N(C)C)N(C)C(=O)[C@H](C2CCCC2)N(C)C(=O)C2(CCCC2)NC(=O)[C@@H]2CCCN2C(=O)[C@H](CCc2ccc(C(F)(F)F)c(Cl)c2)NC(=O)CN(C)C(=O)[C@H](Cc2ccc(C)cc2)N(C)C(=O)[C@@H]2CCN2C(=O)[C@H](C)NC1=O` [Compound 363, (5S,8S,11S,15S,18S,23aS,29S,35S,37aS)-8-((S)-sec-butyl)-29-(3-chloro-4-(trifluoromethyl)phenethyl)-18-cyclopentyl-11-isobutyl-N,N,5,12,16,19,33,36-octamethyl-35-(4-methylbenzyl)-4,7,10,13,17,20,23,28,31,34,37-undecaoxotetratriacontahydro-2H,4H-spiro[azeto[2,1-u]pyrrolo[2,1-i][1,4,7,10,13,16,19,22,25,28,31]undecaazacyclotetratriacontine-21,1′-cyclopentane]-15-carboxamide] ([NMeL]IA[Aze][NMePhe(4-Me)][Sar][hPhe(3-Cl-4-CF3)]P[Ac5c][NMeGly(cPent)][NMeD]-NMe2; lactam N-11), the IC50 came to 0.65 nM. For the molecule `CC[C@H](C)[C@@H]1NC(=O)[C@H](CC(C)C)NC(=O)C[C@@H](C(=O)N2CCCCC2)N(C)C(=O)[C@H](C(C)C)N(C)C(=O)C2(CCCC2)NC(=O)[C@@H]2CCCN2C(=O)[C@H](CCc2ccc(C(F)(F)F)c(Cl)c2)NC(=O)CN(C)C(=O)[C@H](CC2CCCCC2)N(C)C(=O)[C@@H]2CCN2C(=O)[C@H](C)N(C)C1=O` [Compound 368] (LI[NMeA][Aze][NMeCha][Sar][hPhe(3-Cl-4-CF3)]P[Ac5c][NMeV][NMeD]-Piperidide; lactam N-11), the IC50 amounted to 2.7 nM. In the case of `CC[C@H](C)[C@@H]1NC(=O)CCN(C)C(=O)CN(C)C(=O)[C@H](C2CCCC2)N(C)C(=O)C2(CCCC2)NC(=O)[C@@H]2CCCN2C(=O)[C@H](CCc2ccc(C(F)(F)F)c(Cl)c2)NC(=O)CN(C)C(=O)[C@H](CC2CCCCC2)N(C)C(=O)CN(C)C(=O)CN(C)C1=O` [Compound 369] (cyclo([Ac5c][NMeGly(cPent)][Sar][NMeβAla]I[Sar][Sar][NMeCha][Sar][hPhe(3-Cl-4-CF3)]P)) it was 350 nM; in that of `CC[C@H](C)[C@@H]1NC(=O)[C@H](C)N(C)C(=O)C[C@@H](C(=O)N2CCCC2)NC(=O)[C@H](CC(C)C)NC(=O)[C@H](Cc2ccccc2)N(C)C(=O)[C@H](CC(C)C)NC(=O)[C@H](CCc2ccc(C(F)(F)F)cc2)NC(=O)CN(C)C(=O)[C@H](Cc2ccc(Cl)cc2)N(C)C(=O)CN(C)C(=O)CN(C)C1=O` [Compound 372] ([NMeA]I[Sar][Sar][NMePhe(4-Cl)][Sar][hPhe(4-CF3)]L[NMeF]LD-Pyrrolidide; lactam N-11), 130 nM.

Take `CC[C@H](C)[C@@H]1NC(=O)[C@H](CC(C)C)N(C)C(=O)C[C@@H](C)N(C)C(=O)[C@H](C2CCCCC2)N(C)C(=O)C2(CCC2)NC(=O)[C@@H]2CC(F)(F)CN2C(=O)[C@H](CCc2ccc(C(F)(F)F)c(Cl)c2)NC(=O)CN(C)C(=O)[C@H](Cc2ccc(C)cc2)N(C)C(=O)CN(C)C(=O)CN(C)C1=O` [Compound 375] (cyclo([Ac4c][NMeChg][NMedβ3hAla][NMeL]I[Sar][Sar][NMePhe(4-Me)][Sar][hPhe(3-Cl-4-CF3)][Pro(4,4-F2)])): the IC50 was 12 nM. Under `CC[C@H](C)[C@@H]1NC(=O)[C@H](CC(C)C)N(C)C(=O)C[C@@H](C(=O)N2CCCCC2)N(C)C(=O)[C@H](CC(C)C)NC(=O)C(C)(C)N(C)C(=O)[C@H](Cc2cccc(C(F)(F)F)c2)NC(=O)[C@H](Cc2cccc(I)c2)NC(=O)CN(C)C(=O)[C@H](Cc2ccc(C)cc2)N(C)C(=O)CN(C)C(=O)CN(C)C1=O` [Compound 376] ([NMeL]I[Sar][Sar][NMePhe(4-Me)][Sar][Phe(3-I)][Phe(3-CF3)][NMeAib]L[NMeD]-Piperidide; lactam N-11) stands 44 nM; under `CC[C@H](C)[C@@H]1NC(=O)[C@H](CC(C)C)N(C)C(=O)C[C@@H](C(=O)N(C)C)N(C)C(=O)[C@H]([C@@H](C)CC)N(C)C(=O)C2(CCCC2)NC(=O)[C@H](C)N(C)C(=O)[C@H](CCc2ccc(C(F)(F)F)c(Cl)c2)NC(=O)CN(C)C(=O)[C@H](Cc2ccc(C)cc2)N(C)C(=O)[C@@H]2CCN2C(=O)[C@H](C)N(C)C1=O` [Compound 378, (3S,6S,9S,13S,16S,22S,25S,31S,34S)-25-[2-[3-chloro-4-(trifluoromethyl)phenyl]ethyl]-9-isobutyl-N,N,3,4,10,14,17,22,23,29,32-undecamethyl-6,16-bis[(1S)-1-methylpropyl]-2,5,8,11,15,18,21,24,27,30,33-undecaoxo-31-(p-tolylmethyl)spiro[1,4,7,10,14,17,20,23,26,29,32-undecazabicyclo[32.2.0]hexatriacontane-19,1′-cyclopentane]-13-carboxamide] ([NMeL]I[NMeA][Aze][NMePhe(4-Me)][Sar][hPhe(3-Cl-4-CF3)][NMeA][Ac5c][NMeI][NMeD]-NMe2; lactam N-11), 0.68 nM.

Take `CC[C@H](C)[C@@H]1NC(=O)[C@H](CC(C)C)N(C)C(=O)C[C@@H](C(=O)N(C)C)N(C)C(=O)[C@H]([C@@H](C)CC)N(C)C(=O)[C@H](C(C)C)NC(=O)[C@H](CCN2CCCC(F)(F)C2)N(C)C(=O)[C@H](CCc2ccc(C(F)(F)F)c(Cl)c2)NC(=O)CN(C)C(=O)[C@H](Cc2ccc(C)cc2)N(C)C(=O)[C@@H]2CCN2C(=O)[C@H](C)N(C)C1=O` [Compound 379] ([NMeL]I[NMeA][Aze][NMePhe(4-Me)][Sar][hPhe(3-Cl-4-CF3)][NMeAbu(3,3-F2-piperidino)]V[NMeI][NMeD]-NMe2; lactam N-11): the IC50 was determined as 13 nM. As for `CC[C@H](C)[C@@H]1NC(=O)[C@H](C)N(C)C(=O)C[C@@H](C(=O)N2CCCCC2)N(C)C(=O)[C@H](C(C)C)N(C)C(=O)C2(CCCC2)NC(=O)[C@@H]2CCCN2C(=O)[C@H](CCc2ccc(C(F)(F)F)c(Cl)c2)NC(=O)[C@@H](C)N(C)C(=O)[C@H](CC2CCCCC2)N(C)C(=O)CN(C)C(=O)CN(C)C1=O` [Compound 380] ([NMeA]I[Sar][Sar][NMeCha][dNMeA][hPhe(3-Cl-4-CF3)]P[Ac5c][NMeV][NMeD]-Piperidide; lactam N-11), the IC50 amounted to 5.6 nM.

The term IC50 denotes the concentration needed to halve the response being measured.

The record behind these values is patent US12371454B2, “Cyclic peptide compound having Kras inhibitory action” (priority 2019, dated 2025).
